Key:
[1] = target: [35S]-TBPS binding, rat brain cortical membranes; experiment: Steroid inhibition of [35S]-TBPS binding; conditions: 3 nM [35S]-TBPS, in the presence of 5 μM GABA
Description: Steroid Inhibition of TBPS Binding
[35S]-t-Butylbicylophorothionate (TBPS) binding assays using rat brain cortical membranes in the presence of 5 μM GABA has been described (Gee et al, J. Pharmacol. Exp. Ther. 1987, 241, 346-353; Hawkinson et al, Mol. Pharmacol. 1994, 46, 977-985; Lewin, A. H et al., Mol. Pharmacol. 1989, 35, 189-194).
Briefly, cortices are rapidly removed following decapitation of carbon dioxide-anesthetized Sprague-Dawley rats (200-250 g). The cortices are homogenized in 10 volumes of ice-cold 0.32 M sucrose using a glass/teflon homogenizer and centrifuged at 1500×g for 10 min at 4° C. The resultant supernatants are centrifuged at 10,000×g for 20 min at 4° C. to obtain the P2 pellets. The P2 pellets are resuspended in 200 mM NaCl/50 mM Na—K phosphate pH 7.4 buffer and centrifuged at 10,000×g for 10 min at 4° C. This washing procedure is repeated twice and the pellets are resuspended in 10 volumes of buffer. Aliquots (100 μL) of the membrane suspensions are incubated with 3 nM [^35S]-TBPS and 5 μL aliquots of test drug dissolved in dimethyl sulfoxide (DMSO) (final 0.5%) in the presence of 5 μM GABA. The incubation is brought to a final volume of 1.0 mL with buffer. Nonspecific binding is determined in the presence of 2 μM unlabeled TBPS and ranged from 15 to 25%. Following a 90 min incubation at room temp, the assays are terminated by filtration through glass fiber filters (Schleicher and Schuell No. 32) using a cell harvester (Brandel) and rinsed three times with ice-cold buffer. Filter bound radioactivity is measured by liquid scintillation spectrometry. Non-linear curve fitting of the overall data for each drug averaged for each concentration is done using Prism (GraphPad).
Various compounds are or can be screened to determine their potential as modulators of [^355]-TBPS binding in vitro. These assays are or can be performed in accordance with the above discussed procedures.

α1β2γ2 GABAA receptor = α1β2γ2 GABAA receptor (Homo sapiens (Human), UniProt P14867+P47870); conditions: for Emax at 10 µM / Emax: LTK; for Emax at 10 µM: read-out: GABA (α1β2γ2) Qpatch in Ltk, % efficacy at 10 μM, Qpatch, Ltk cells, 10 μM compound, 2 μM GABA; for Emax: read-out: GABAa alpha1 (α1β2γ2) Emax (%), potentiation of GABA EC20 (2 μM) current; for GABA (α1β2γ2) Qpatch in Ltk, % efficacy at 10 μM: Ltk cells, 10 μM compound, 2 μM GABA
Description: LTK cells are stably transfected with the α1β2γ2 subunits of the GABA receptor and CHO cells are transiently transfected with the α4β3δ subunits via the Lipofecatamine method. Cells were passaged at a confluence of about 50-80% and then seeded onto 35 mm sterile culture dishes containing 2 ml culture complete medium without antibiotics or antimycotics.
Whole cell currents were measured with HEKA EPC-10 amplifiers using PatchMaster software or by using the high throughput QPatch platform (Sophion). […] In some cases 0.005% cremophor was also added. Intracellular (pipette) solution contained: KCl 130 mM, MgCl2 1 mM, Mg-ATP 5 mM, HEPES 10 mM, EGTA 5 mM, pH 7.2. During experiments, cells and solutions were maintained at room temperature (19° C.-30° C.). For manual patch clamp recordings, cell culture dishes were placed on the dish holder of the microscope and continuously perfused (1 ml/min) with bath solution. After formation of a Gigaohm seal between the patch electrodes and the cell (pipette resistance range: 2.5 MΩ-6.0 MΩ; seal resistance range: >1 GΩ) the cell membrane across the pipette tip was ruptured to assure electrical access to the cell interior (whole-cell patch-configuration). For experiments using the QPatch system, cells were transferred as suspension to the QPatch system in the bath solution and automated whole cell recordings were performed.
Cells were voltage clamped at a holding potential of −80 mV. For the analysis of test articles, GABA receptors were stimulated by 2 μM GABA after sequential pre-incubation of increasing concentrations of the test article. Pre-incubation duration was 30 s and the duration of the GABA stimulus was 2 s. Test articles were dissolved in DMSO to form stock solutions (10 mM). Test articles were diluted to 0.01, 0.1, 1, and 10 μM in bath solution. All concentrations of test articles were tested on each cell. The relative percentage potentiation was defined as the peak amplitude in response to GABA EC20 in the presence of the test article divided by the peak amplitude in response to GABA EC20 alone, multiplied by 100.

Row | SMILES | IC50 [1] [nM] | also measured
1 | C[C@@H]1COCCN1CC(=O)[C@H]1CC[C@H]2[C@@H]3CC[C@@H]4C[C@](C)(O)CC[C@@H]4[C@H]3CC[C@]12C [Entry 11] | 100 to 500 | –
2 | C[C@@]1(O)CC[C@H]2[C@H](CC[C@@H]3[C@@H]2CC[C@]2(C)[C@@H](C(=O)CN4CC(O)C4)CC[C@@H]32)C1 [Entry 5] | ≥ 500 | –
3 | C[C@@]1(O)CC[C@H]2[C@H](CC[C@@H]3[C@@H]2CC[C@]2(C)[C@@H](C(=O)CN4CCNCC4)CC[C@@H]32)C1 [Entry 51] | 100 to 500 | –
4 | CC(=O)N1CCN(CC(=O)[C@H]2CC[C@H]3[C@@H]4CC[C@H]5C[C@](C)(O)[C@@H](C)C[C@@H]5[C@H]4CC[C@]23C)CC1 [Entry 21] | 100 to 500 | –
5 | COC[C@@]1(O)CC[C@H]2[C@H](CC[C@@H]3[C@@H]2CC[C@]2(C)[C@@H](C(=O)CN4CCOCC4)CC[C@@H]32)C1 [Entry 43] | ≥ 500 | –
6 | C[C@@]1(O)CC[C@H]2[C@H](CC[C@@H]3[C@@H]2CC[C@]2(C)[C@@H](C(=O)CN4CCNCC4)CC[C@@H]32)C1 [Entry 23] | ≥ 500 | –
7 | CC[C@@]1(O)CC[C@H]2[C@@H](CC[C@@H]3[C@@H]2CC[C@]2(C)[C@@H](C(=O)CN4CCN(S(C)(=O)=O)CC4)CC[C@@H]32)C1 [Entry 33] | 100 to 500 | –
8 | C[C@]12CC[C@H]3[C@@H](CC[C@@H]4C[C@@](O)(C(F)F)CC[C@@H]43)[C@@H]1CC[C@@H]2C(=O)CN1CCOCC1 [Entry 40] | ≥ 500 | –
9 | C[C@]12CC[C@H]3[C@@H](CC[C@@H]4C[C@@](O)(CF)CC[C@@H]43)[C@@H]1CC[C@@H]2C(=O)CN1CCOCC1 [Entry 46] | ≥ 500 | –
10 | C[C@]12CC[C@H]3[C@@H](CC[C@@H]4C[C@@](O)(CF)CC[C@@H]43)[C@@H]1CC[C@@H]2C(=O)CN1CCOCC1 [Entry 55] | – | Emax at 10 µM (α1β2γ2 GABAA receptor): 10 to 100%
11 | COC[C@@]1(O)CC[C@H]2[C@@H](CC[C@@H]3[C@@H]2CC[C@]2(C)[C@@H](C(=O)CN4CCOCC4)CC[C@@H]32)C1 [Entry 50] | – | Emax at 10 µM (α1β2γ2 GABAA receptor): 10 to 100%
12 | C[C@@]1(O)CC[C@@H]2[C@H]3CC[C@]4(C)[C@@H](C(=O)CN5CCOCC5)CC[C@H]4[C@@H]3C[C@@H](F)[C@@H]2C1 [Entry 44] | ≥ 500 | –
13 | COC[C@@]1(O)CC[C@H]2[C@H](CC[C@@H]3[C@@H]2CC[C@]2(C)[C@@H](C(=O)CN4CCN(S(C)(=O)=O)CC4)CC[C@@H]32)C1 [Entry 30] | – | Emax at 10 µM (α1β2γ2 GABAA receptor): > 500%
14 | C[C@@]1(O)CC[C@@H]2[C@H]3CC[C@]4(C)[C@@H](C(=O)CN5CCOCC5)CC[C@H]4[C@@H]3C[C@@H](F)[C@H]2C1 [Entry 38] | ≥ 500 | –
15 | CC[C@@]1(O)CC[C@H]2[C@@H](CC[C@@H]3[C@@H]2CC[C@]2(C)[C@@H](C(=O)CN4CCOCC4)CC[C@@H]32)C1 [Entry 49] | ≥ 500 | –
16 | C[C@@]1(O)CC[C@H]2[C@@H](CC[C@@H]3[C@@H]2CC[C@]2(C)[C@@H](C(=O)CN4CCCC(O)C4)CC[C@@H]32)C1 (stereo partly shown) [Entry 15] | ≥ 500 | –
17 | CNC(=O)N1CCN(CC(=O)[C@H]2CC[C@H]3[C@@H]4CC[C@@H]5C[C@](C)(O)CC[C@@H]5[C@H]4CC[C@]23C)CC1 [Entry 9] | – | Emax at 10 µM (α1β2γ2 GABAA receptor): 100 to 500%
18 | C[C@H]1C[C@H]2[C@@H](CC[C@@H]3[C@@H]2CC[C@]2(C)[C@@H](C(=O)CN4CCOCC4)CC[C@@H]32)C[C@]1(C)O [Entry 18] | 100 to 500 | –
19 | CC(=O)N1CCN(CC(=O)[C@H]2CC[C@H]3[C@@H]4CC[C@H]5C[C@](C)(O)CC[C@@H]5[C@H]4CC[C@]23C)CC1 [Entry 13] | 100 to 500 | –
20 | C[C@@H]1CN(CC(=O)[C@H]2CC[C@H]3[C@@H]4CC[C@@H]5C[C@](C)(O)CC[C@@H]5[C@H]4CC[C@]23C)CCO1 [Entry 2] | – | EC50 (α1β2γ2 GABAA receptor): 1000 to 2000 nM; Emax (α1β2γ2 GABAA receptor): 0 to 500%
21 | CO[C@H]1C[C@H]2[C@@H](CC[C@@H]3[C@@H]2CC[C@]2(C)[C@@H](C(=O)CN4CCOCC4)CC[C@@H]32)C[C@]1(C)O [Entry 41] | ≥ 500 | –

Row | SMILES | IC50 [1] [nM] | also measured
22 | C[C@@H]1COCCN1CC(=O)[C@H]1CC[C@H]2[C@@H]3CC[C@@H]4C[C@](C)(O)CC[C@@H]4[C@H]3CC[C@]12C [Entry 3] | – | EC50 (α1β2γ2 GABAA receptor): > 2000 nM; Emax (α1β2γ2 GABAA receptor): 0 to 500%
23 | COC[C@@]1(O)CC[C@H]2[C@@H](CC[C@@H]3[C@@H]2CC[C@]2(C)[C@@H](C(=O)CN4CCN(S(C)(=O)=O)CC4)CC[C@@H]32)C1 [Entry 52] | 100 to 500 | –
24 | COC[C@@]1(O)CC[C@H]2[C@@H](CC[C@@H]3[C@@H]2CC[C@]2(C)[C@@H](C(=O)CN4CCN(S(C)(=O)=O)CC4)CC[C@@H]32)C1 [Entry 57] | – | GABA (α1β2γ2) Qpatch in Ltk, % efficacy at 10 μM (α1β2γ2 GABAA receptor): C (“C” ≥500)
25 | CC[C@@]1(O)CC[C@H]2[C@H](CC[C@@H]3[C@@H]2CC[C@]2(C)[C@@H](C(=O)CN4CCN(S(C)(=O)=O)CC4)CC[C@@H]32)C1 [Entry 34] | – | Emax at 10 µM (α1β2γ2 GABAA receptor): 100 to 500%
26 | COC[C@@]1(O)CC[C@H]2[C@@H](CC[C@@H]3[C@@H]2CC[C@]2(C)[C@@H](C(=O)CN4CCN(S(C)(=O)=O)CC4)CC[C@@H]32)C1 [Entry 29] | – | GABA (α1β2γ2) Qpatch in Ltk, % efficacy at 10 μM (α1β2γ2 GABAA receptor): B (“B” ≥100-500)
27 | C[C@@]1(O)CC[C@H]2[C@@H](CC[C@@H]3[C@@H]2CC[C@]2(C)[C@@H](C(=O)CN4CCC(O)CC4)CC[C@@H]32)C1 [Entry 12] | ≥ 500 | –
28 | C[C@@H]1C[C@H]2[C@@H](CC[C@@H]3[C@@H]2CC[C@]2(C)[C@@H](C(=O)CN4CCN(S(C)(=O)=O)CC4)CC[C@@H]32)C[C@]1(C)O [Entry 25] | 50 to 100 | –
29 | C[C@]12CC[C@H]3[C@@H](CC[C@@H]4C[C@@](O)(CF)CC[C@@H]43)[C@@H]1CC[C@@H]2C(=O)CN1CCN(S(C)(=O)=O)CC1 [Entry 32] | – | Emax at 10 µM (α1β2γ2 GABAA receptor): > 500%
30 | COC[C@@]1(O)CC[C@H]2[C@@H](CC[C@@H]3[C@@H]2CC[C@]2(C)[C@@H](C(=O)CN4CCOCC4)CC[C@@H]32)C1 [Entry 42] | ≥ 500 | –
31 | CC(=O)N1CCN(CC(=O)[C@H]2CC[C@H]3[C@@H]4CC[C@@H]5C[C@](C)(O)CC[C@@H]5[C@H]4CC[C@]23C)CC1 [Entry 17] | – | Emax at 10 µM (α1β2γ2 GABAA receptor): 100 to 500%
32 | C[C@@H]1COCCN1CC(=O)[C@H]1CC[C@H]2[C@@H]3CC[C@@H]4C[C@](C)(O)CC[C@@H]4[C@H]3CC[C@]12C [Entry 7] | – | Emax at 10 µM (α1β2γ2 GABAA receptor): 100 to 500%
33 | C[C@@]1(O)CC[C@H]2[C@H](CC[C@@H]3[C@@H]2CC[C@]2(C)[C@@H](C(=O)CN4CCCOCC4)CC[C@@H]32)C1 [Entry 53] | 100 to 500 | –
34 | C[C@]12CC[C@H]3[C@@H](CC[C@H]4C[C@@](O)(CF)CC[C@@H]43)[C@@H]1CC[C@@H]2C(=O)CN1CCOCC1 [Entry 48] | ≥ 500 | –
35 | C[C@H]1CN(CC(=O)[C@H]2CC[C@H]3[C@@H]4CC[C@@H]5C[C@](C)(O)CC[C@@H]5[C@H]4CC[C@]23C)C[C@H](C)O1 [Entry 31] | 10 to 50 | –
36 | C[C@@H]1C[C@H]2[C@@H](CC[C@@H]3[C@@H]2CC[C@]2(C)[C@@H](C(=O)CN4CCOCC4)CC[C@@H]32)C[C@]1(C)O [Entry 47] | – | Emax at 10 µM (α1β2γ2 GABAA receptor): 10 to 100%
37 | C[C@@H]1CCCCN1CC(=O)[C@H]1CC[C@H]2[C@@H]3CC[C@@H]4C[C@](C)(O)CC[C@@H]4[C@H]3CC[C@]12C [Entry 37] | 100 to 500 | –
38 | C[C@@]1(O)CC[C@H]2[C@@H](CC[C@@H]3[C@@H]2CC[C@]2(C)[C@@H](C(=O)CN4CCNCC4)CC[C@@H]32)C1 [Entry 24] | ≥ 500 | –
39 | CC(=O)N1CCN(CC(=O)[C@H]2CC[C@H]3[C@@H]4CC[C@H]5C[C@](C)(O)[C@H](C)C[C@@H]5[C@H]4CC[C@]23C)CC1 [Entry 20] | 100 to 500 | –
40 | C[C@@H]1C[C@H]2[C@@H](CC[C@@H]3[C@@H]2CC[C@]2(C)[C@@H](C(=O)CN4CCOCC4)CC[C@@H]32)C[C@]1(C)O [Entry 39] | 100 to 500 | –
41 | COC[C@@]1(O)CC[C@H]2[C@H](CC[C@@H]3[C@@H]2CC[C@]2(C)[C@@H](C(=O)CN4CCN(S(C)(=O)=O)CC4)CC[C@@H]32)C1 [Entry 22] | 100 to 500 | –
